Tested on: cell laminate comprising a vascular endothelial cell layer and a smooth muscle cell layer on an HCM
Test: Evaluation of response to physiologically active substances (thrombin added to cell laminate, microscopy)
Format: cell-based
Conditions: 37° C., 30 minutes, rat VEC/SMC-HCM insert
Method: (1) 0.1 mg (100 UN) of thrombin (#T7009-100UN, Sigma) was dissolved in 100 μL of physiological saline to prepare a thrombin solution having a concentration of 1000 U/mL. The thrombin solution was further diluted with HBSS(+) to prepare a 25 U/mL thrombin solution and a 100 U/mL thrombin solution.
(2) 900 μL of HBSS(+) was added to each of the wells of a 24-well plate.
(3) The inserts comprising the cell laminate were taken out of the medium, the medium was removed from the inner side of each insert using an aspirator, and the inserts were placed in the wells.
(4) 200 μL of either HBSS(+) (control), the 25 U/mL thrombin solution, or the 100 U/mL thrombin solution was added to the inner side of each of the inserts placed on the wells, and the inserts were incubated at 37° C. for 30 minutes.
(5) The state of the cell laminate was observed under a microscope. The microscopic image of the cell laminate is shown in FIG. 9 (superimposed image of red fluorescence: VE-cadherin and green fluorescence: α-smooth muscle actin).

Q: For thrombin, which cell contraction (25 U/mL or 100 U/mL thrombin solution, HBSS(+) control) is on record?
A: cell contraction due to activation of actin stress fibers caused by the addition of thrombin was observed

Q: What about the “dependence of cell contraction on thrombin concentration” value (25 U/mL versus 100 U/mL thrombin solution) of the same substance?
A: Higher thrombin concentrations caused stronger cell contractions

Source: US12351789B2, “Method for producing cell laminate” (FUJIFILM CORPORATION, priority 2017, dated 2025)
